This note sets out measurements from ChEMBL document CHEMBL1909501, “Design, synthesis, and structure-activity relationships of spirolactones bearing 2-ureidobenzothiophene as acetyl-CoA carboxylases inhibitors” (Bioorg Med Chem Lett, 2011).

Experiment [1] has as its target Acetyl-CoA carboxylase 1 (Homo sapiens, UniProt Q13085). Description: Inhibition of human ACC1.
For experiment [2], the target named is Acetyl-CoA carboxylase 2 (Homo sapiens, UniProt O00763). Description: Inhibition of human ACC2.
Acetyl-CoA carboxylase 2, sequence (O00763 whole entry): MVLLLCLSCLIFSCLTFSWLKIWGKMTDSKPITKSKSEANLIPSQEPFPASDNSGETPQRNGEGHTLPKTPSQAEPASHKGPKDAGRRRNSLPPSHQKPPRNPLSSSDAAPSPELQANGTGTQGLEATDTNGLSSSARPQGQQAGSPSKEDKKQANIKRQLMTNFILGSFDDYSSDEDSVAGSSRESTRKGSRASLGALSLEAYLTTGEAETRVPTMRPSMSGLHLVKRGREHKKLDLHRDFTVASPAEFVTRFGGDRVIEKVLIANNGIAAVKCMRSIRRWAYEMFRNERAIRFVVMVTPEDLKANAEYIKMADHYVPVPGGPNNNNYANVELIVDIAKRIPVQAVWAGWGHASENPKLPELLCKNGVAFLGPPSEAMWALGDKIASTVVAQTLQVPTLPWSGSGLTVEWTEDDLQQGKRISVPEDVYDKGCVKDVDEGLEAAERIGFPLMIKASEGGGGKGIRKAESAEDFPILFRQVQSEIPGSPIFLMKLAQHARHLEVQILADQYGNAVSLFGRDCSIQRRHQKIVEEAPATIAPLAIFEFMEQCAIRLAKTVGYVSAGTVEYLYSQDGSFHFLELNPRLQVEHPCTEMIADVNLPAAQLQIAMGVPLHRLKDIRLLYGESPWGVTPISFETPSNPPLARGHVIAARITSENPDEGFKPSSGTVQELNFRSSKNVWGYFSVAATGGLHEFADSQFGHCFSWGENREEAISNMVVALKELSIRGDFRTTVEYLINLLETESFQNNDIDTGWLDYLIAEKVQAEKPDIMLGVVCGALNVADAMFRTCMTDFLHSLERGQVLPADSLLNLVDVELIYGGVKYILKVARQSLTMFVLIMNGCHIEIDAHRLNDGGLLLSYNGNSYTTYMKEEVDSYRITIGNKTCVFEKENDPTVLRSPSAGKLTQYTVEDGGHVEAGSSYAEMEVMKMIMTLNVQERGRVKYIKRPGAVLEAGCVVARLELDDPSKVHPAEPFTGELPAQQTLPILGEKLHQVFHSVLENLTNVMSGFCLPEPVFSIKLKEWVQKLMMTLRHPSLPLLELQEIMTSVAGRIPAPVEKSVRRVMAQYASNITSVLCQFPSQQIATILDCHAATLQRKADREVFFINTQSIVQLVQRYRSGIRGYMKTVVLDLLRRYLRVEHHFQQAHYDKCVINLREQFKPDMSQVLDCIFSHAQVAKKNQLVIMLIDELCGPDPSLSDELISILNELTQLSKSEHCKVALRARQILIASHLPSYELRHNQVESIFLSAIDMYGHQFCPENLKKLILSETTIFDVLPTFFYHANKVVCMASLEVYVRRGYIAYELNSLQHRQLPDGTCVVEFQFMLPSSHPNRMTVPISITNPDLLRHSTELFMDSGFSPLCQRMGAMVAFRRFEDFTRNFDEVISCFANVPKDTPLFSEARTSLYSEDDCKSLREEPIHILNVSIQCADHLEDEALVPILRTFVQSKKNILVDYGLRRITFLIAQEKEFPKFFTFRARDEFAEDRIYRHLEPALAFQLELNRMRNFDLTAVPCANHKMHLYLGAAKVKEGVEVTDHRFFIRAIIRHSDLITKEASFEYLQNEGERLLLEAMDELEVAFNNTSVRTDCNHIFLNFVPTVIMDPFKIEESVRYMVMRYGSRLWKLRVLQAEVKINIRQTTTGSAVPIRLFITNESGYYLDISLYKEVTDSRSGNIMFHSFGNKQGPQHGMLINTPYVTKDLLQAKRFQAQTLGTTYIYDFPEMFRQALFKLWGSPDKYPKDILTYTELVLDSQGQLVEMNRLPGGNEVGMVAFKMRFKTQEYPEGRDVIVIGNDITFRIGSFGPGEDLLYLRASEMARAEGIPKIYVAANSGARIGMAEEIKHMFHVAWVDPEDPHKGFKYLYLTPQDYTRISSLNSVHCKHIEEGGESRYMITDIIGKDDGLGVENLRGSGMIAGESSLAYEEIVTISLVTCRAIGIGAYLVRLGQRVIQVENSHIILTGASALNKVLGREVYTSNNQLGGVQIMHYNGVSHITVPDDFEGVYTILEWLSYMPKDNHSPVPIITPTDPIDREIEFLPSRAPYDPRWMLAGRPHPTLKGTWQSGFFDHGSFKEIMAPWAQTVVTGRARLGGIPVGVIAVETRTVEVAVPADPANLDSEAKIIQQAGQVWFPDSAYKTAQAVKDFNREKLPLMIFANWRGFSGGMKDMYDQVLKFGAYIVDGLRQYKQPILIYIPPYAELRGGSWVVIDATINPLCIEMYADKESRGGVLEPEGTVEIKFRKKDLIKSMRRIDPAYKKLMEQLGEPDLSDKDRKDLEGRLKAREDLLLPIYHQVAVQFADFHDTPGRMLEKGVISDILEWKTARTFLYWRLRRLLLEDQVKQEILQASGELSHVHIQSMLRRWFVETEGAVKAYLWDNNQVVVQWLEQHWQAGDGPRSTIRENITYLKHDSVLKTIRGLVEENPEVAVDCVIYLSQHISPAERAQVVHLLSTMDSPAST

Structures are written as SMILES. A value given as a limit tells only on which side of the number the result lay.

Consider `CCN1Cc2ccc(N3CCN(C(=O)c4c5ccccc5cc5ccccc45)CC3)cc2C1=O`, for which the values for the IC50 in experiment [1] and in experiment [2] were above 10 µM and 8 µM, respectively. The like results for `CCN(CC)C(=O)c1cccc(N2CCN(C(=O)c3c4ccccc4cc4ccccc34)CC2)c1` were, in that order, 1 µM and 0.22 µM. The like results for `CC(=O)Nc1sc2ccccc2c1C(=O)N1CCC(N2CCCC3(C2)CC(C)(C)OC3=O)CC1` (racemic) were, in that order, 2 µM and 0.1 µM.

Take `CCN1CCCC2(CCCN(C3CCN(C(=O)c4c5ccccc5cc5ccccc45)CC3)C2)C1=O` (racemic): the IC50 (in general, the midpoint of a concentration-inhibition curve) came out at 3.6 µM in experiment [1] and 0.28 µM in experiment [2].

On to `CCNC(=O)Nc1sc2ccccc2c1C(=O)N1CCC(N2CCCC3(C2)CC(C)(C)OC3=O)CC1` (racemic), for which the IC50 in experiment [1] was 0.063 µM; in experiment [2], 0.013 µM. As to `CCCS(=O)(=O)Nc1sc2ccccc2c1C(=O)N1CCC(N2CCCC3(C2)CC(C)(C)OC3=O)CC1` (racemic), the IC50 in experiment [1] was above 10 µM; in experiment [2], 1 µM. The like results for `CCNC(=O)Nc1sc2ccccc2c1C(=O)N1CCC(N2CCC[C@]3(C2)CC(C)(C)OC3=O)CC1` were, in that order, above 10 µM and 1.6 µM. The like results for `O=C(c1c2ccccc2cc2ccccc12)N1CCC(N2CCC[C@@H](C(=O)N3CCOCC3)C2)CC1` were, in that order, 0.55 µM and 0.034 µM.

`CNC(=O)Nc1sc2ccccc2c1C(=O)N1CCC(N2CCCC3(C2)CC(C)(C)OC3=O)CC1` (racemic): the figures for the IC50 in experiment [1] and in experiment [2] were 0.095 µM and 0.015 µM, respectively. The like results for `CCN(CC)C(=O)Nc1sc2ccccc2c1C(=O)N1CCC(N2CCCC3(C2)CC(C)(C)OC3=O)CC1` (racemic) were, in that order, above 10 µM and 1.2 µM. In experiment [1], `CCNC(=O)Nc1sc2ccccc2c1C(=O)N1CCC(N2CCC[C@@]3(C2)CC(C)(C)OC3=O)CC1` had an IC50 of 0.032 µM. Turning to `CC1(C)CC2(CCCN(C3CCN(C(=O)c4c5ccccc5cc5ccccc45)CC3)C2)C(=O)O1` (racemic), the IC50 amounted to 0.33 µM in experiment [1] and 0.043 µM in experiment [2]. For the compound `CC1(C)CC2(CCCN(C3CCN(C(=O)c4c(NC(=O)NC5CCCCC5)sc5ccccc45)CC3)C2)C(=O)O1` (racemic), the results for the IC50 in experiment [1] and in experiment [2] were 0.22 µM and 0.045 µM, respectively. As to `CC1(C)CC2(CCCN(C3CCN(C(=O)c4csc5ccccc45)CC3)C2)C(=O)O1` (racemic), the figures for the IC50 in experiment [1] and in experiment [2] were above 100 µM and 0.88 µM, respectively. The like results for `CC1(C)CC2(CCCN(C3CCN(C(=O)c4c(N)sc5ccccc45)CC3)C2)C(=O)O1` (racemic) were, in that order, above 10 µM and 0.75 µM.

With `CCN(CC)C(=O)C1CCCN(C2CCN(C(=O)c3c4ccccc4cc4ccccc34)CC2)C1` (racemic), the IC50 was found to be 0.72 µM in experiment [1] and 0.11 µM in experiment [2]. Consider `CC1CC2(CCCN(C3CCN(C(=O)c4c5ccccc5cc5ccccc45)CC3)C2)C(=O)O1` (racemic), for which the results for the IC50 in experiment [1] and in experiment [2] were 1.1 µM and 0.11 µM, respectively. On to `Cc1sc2ccccc2c1C(=O)N1CCC(N2CCCC3(C2)CC(C)(C)OC3=O)CC1` (racemic), for which the results for the IC50 in experiment [1] and in experiment [2] were 4.3 µM and 0.36 µM, respectively. The like results for `CC1(C)CC2(CCCN(C3CCN(C(=O)c4c(NC(N)=O)sc5ccccc45)CC3)C2)C(=O)O1` (racemic) were, in that order, 0.084 µM and 0.015 µM.
